Tested on: patients with inadequately managed, severe chronic low back pain with or without a neuropathic pain component
Assay: Hospital Anxiety and Depression Scale (HADS) depression score; open-label phase IIIb trial, tapentadol prolonged release 50-250 mg bid for up to 12 weeks
Format: in vivo, human patients
Conditions: for HADS depression score, course: Baseline to Week 12
Experimental: As used herein, the “depression score” is a value determining the degree of the depression. The scale of depression scores covers the range from 0 to 21, wherein the degree of the depression is high in case of high values and low in case of low values. In a group of tested subjects, typically the mean or mediate values of depression scores are determined. The mean value is the sum of all depression scores divided by the number of subjects. The mediate value is the middle depression score in the set of determined scores. Preferably, the “depression score” is defined as in the experimental section.
A subgroup suffering from neuropathic pain due to lumbar radiculopathy was also investigated.
This was a multicenter, multinational, open-label, effectiveness phase IIIb trial to evaluate effectiveness and safety of tapentadol prolonged release treatment in patients with inadequately managed, severe chronic low back pain with or without a neuropathic pain component. Patients taking WHO Step II analgesics discontinued those analgesics before starting study medication; patients taking Step I analgesics and/or centrally acting co-analgesics continued on the same dose. […] All patients received tapentadol prolonged release (50-250 mg bid) for up to 12 weeks (5-week titration period and a 7-week maintenance period). Tapentadol immediate release (IR) 50 mg (twice a day, hours apart) was permitted (combined total daily dose of tapentadol prolonged release and tapentadol IR, 500 mg/day). The primary efficacy endpoint was the change from Baseline to Week 6 (when tapentadol prolonged release doses were stable) in average pain intensity on the 11-point NRS-3 using the last observation carried forward (LOCF) for imputing missing scores. The painDETECT questionnaire was used to evaluate the likelihood of a neuropathic pain component of low back pain; patients were classified as painDETECT “negative,” “unclear,” or “positive.” The population of patients classified as painDETECT negative was limited to approximately 30% of the total population.
In the painDETECT positive trial population the “diagnosis of lumbar radiculopathy” was evaluated which was defined per study protocol according following criteria: • typical dermatomal pain (radiating beyond the knee towards the foot, pain evoked by stretching within distribution of the ischiadic/femoral nerve) • signs of root dysfunction: • such as sensory impairment, motor symptoms from compression of lumbar nerve root (L4, L5, S1). • and/or absent or diminished quadriceps femoris or triceps surae reflexes. • and/or quantitative sensory testing (QST) deficit and pain distribution present in the same dermatomal area.
All subjects completed Short Form-36 (SF-36) and EuroQol-5 Dimension (EQ-5D) questionnaires and the Hospital Anxiety and Depression Scale (HADS). The Patient Global Impression of Change (PGIC) and Clinical global impression of change (CGIC) were also used as secondary endpoints. For both tests, patients completed the statement, “since I began trial treatment, I would rate my overall condition as,” using 7 possible responses (“very much worse” to “very much improved”). Adverse events were recorded throughout the trial.
In the following • (i) N is the number of subjects of the specified diagnosis group, • (ii) n is the number of subjects with data available, • (iii) “Mean” is the mean score of the subjects, i.e. the sum of all scores is divided by the number of subjects, • (iv) SD is the standard deviation, • (v) “Median” is the median score of the subjects, i.e. the middle score in the set of scores, • (vi) “Range” is the range of scores of the subjects, i.e. the range defined by the lowest and the highest score of the set of scores. First, the depression scores are presented. The total number of subjects in the clinical study: N=175

[1] = Visit 1, defined neuropathic pain N=85
[2] = Visit 1, positive diagnosis of lumbar radiculopathy-neuropathic pain subset N=44
[3] = Visit 1, presumed neuropathic pain component N=41
[4] = Visit 1, presumed or defined neuropathic pain component N=126
[5] = Visit 1, subjects with nociceptive pain N=49
[6] = Visit 5, defined neuropathic pain N=85
[7] = Visit 5, positive diagnosis of lumbar radiculopathy-neuropathic pain subset N=44
[8] = Visit 5, presumed neuropathic pain component N=41
[9] = Visit 5, presumed or defined neuropathic pain component N=126
[10] = Visit 5, subjects with nociceptive pain N=49
[11] = Visit 6, defined neuropathic pain N=85
[12] = Visit 6, positive diagnosis of lumbar radiculopathy-neuropathic pain subset N=44
[13] = Visit 6, presumed neuropathic pain component N=41
[14] = Visit 6, presumed or defined neuropathic
[15] = Visit 6, presumed or defined neuropathic pain component N=126
[16] = Visit 6, subjects with nociceptive pain N=49
[17] = Visit 7, defined neuropathic pain N=85
[18] = Visit 7, positive diagnosis of lumbar radiculopathy-neuropathic pain subset N=44
[19] = Visit 7, presumed neuropathic pain component N=41
[20] = Visit 7, presumed or defined neuropathic pain component N=126
[21] = Visit 7, subjects with nociceptive pain N=49
[22] = Visit 8, defined neuropathic pain N=85

Q: Which results are given for `CC[C@@H](c1cccc(O)c1)[C@@H](C)CN(C)C` [tapentadol, (−)-(1R,2R)-3-(3-dimethylamino-1-ethyl-2-methyl-propyl)-phenol]?
A: HADS depression score, course (painDETECT negative): not significantly; HADS depression score, course (painDETECT unclear/positive, P<0.0001 at Visit 12): improved steadily; HADS depression score, course (positive diagnosis of lumbar radiculopathy-neuropathic pain subset, 0.0023 at Visit 12): improved steadily; Depression score Mean (SD) [1]: 8.3 (4.51); Depression score Median [1]: 8.0; Depression score Mean (SD) [2]: 7.5 (3.69); Depression score Median [2]: 7.5; Depression score Mean (SD) [3]: 8.8 (4.59); Depression score Median [3]: 8.5; Depression score Mean (SD) [4]: 8.5 (4.52); Depression score Median [4]: 8.0; Depression score Mean (SD) [5]: 6.1 (3.90); Depression score Median [5]: 5.0; Depression score Mean (SD) (Visit 1, total subjects N=175): 7.8 (4.47); Depression score Median (Visit 1, total subjects N=175): 7.0; Depression score Mean (SD) [6]: 7.3 (4.29); Depression score Median [6]: 7.0; Depression score Mean (SD) [7]: 6.7 (3.77); Depression score Median [7]: 6.0; Depression score Mean (SD) [8]: 7.5 (4.59); Depression score Median [8]: 7.0; Depression score Mean (SD) [9]: 7.4 (4.37); Depression score Median [9]: 7.0; Depression score Mean (SD) [10]: 5.6 (3.68); Depression score Median [10]: 5.0; Depression score Mean (SD) (Visit 5, total subjects N=175): 6.9 (4.26); Depression score Median (Visit 5, total subjects N=175): 6.0; Depression score change from baseline Mean (SD) (Visit 6): −0.4 (3.55); Depression score change from baseline Median (Visit 6): −0.0; Depression score change from baseline Mean (SD) (Visit 6, defined neuropathic): −1.7 (3.43); Depression score change from baseline Median (Visit 6, defined neuropathic): −2.0; Depression score Mean (SD) [11]: 6.8 (4.41); Depression score Median [11]: 6.0; Depression score change from baseline Mean (SD) (Visit 6, lumbar radiculopathy): −1.7 (3.23); Depression score change from baseline Median (Visit 6, lumbar radiculopathy): −1.0; Depression score change from baseline Mean (SD) (Visit 6, nociceptive): −1.0 (3.15); Depression score change from baseline Median (Visit 6, nociceptive): −1.0; Depression score Mean (SD) [12]: 6.3 (3.67); Depression score Median [12]: 6.0; Depression score Mean (SD) [13]: 7.5 (4.60); Depression score Median [13]: 7.5; Depression score change from baseline Mean (SD) [14]: −1.3 (3.50); Depression score change from baseline Median [14]: −1.0; Depression score Mean (SD) [15]: 7.1 (4.46); Depression score Median [15]: 7.0; Depression score Mean (SD) [16]: 5.3 (4.03); Depression score Median [16]: 4.0; Depression score change from baseline Mean (SD) (Visit 6, total): −1.2 (3.40); Depression score change from baseline Median (Visit 6, total): −1.0; Depression score Mean (SD) (Visit 6, total subjects N=175): 6.6 (4.41); Depression score Median (Visit 6, total subjects N=175): 6.0; Depression score Mean (SD) [17]: 6.2 (4.56); Depression score Median [17]: 6.0; Depression score Mean (SD) [18]: 5.4 (3.85); Depression score Median [18]: 5.0; Depression score Mean (SD) [19]: 7.0 (4.71); Depression score Median [19]: 6.5; Depression score Mean (SD) [20]: 6.5 (4.61); Depression score Median [20]: 6.0; Depression score Mean (SD) [21]: 5.0 (3.63); Depression score Median [21]: 4.0; Depression score Mean (SD) (Visit 7, total subjects N=175): 6.1 (4.40); Depression score Median (Visit 7, total subjects N=175): 6.0; Depression score change from baseline Mean (SD) (Visit 8): −1.0 (3.13); Depression score change from baseline Median (Visit 8): −1.0; Depression score change from baseline Mean (SD) (Visit 8, defined neuropathic): −2.3 (3.33); Depression score change from baseline Median (Visit 8, defined neuropathic): −1.5; Depression score Mean (SD) [22]: 6.4 (4.28); Depression score Median [22]: 6.0; Depression score change from baseline Mean (SD) (Visit 8, lumbar radiculopathy): −2.1 (3.54); Depression score change from baseline Median (Visit 8, lumbar radiculopathy): −1.0; Depression score change from baseline Mean (SD) (Visit 8, nociceptive): −0.8 (2.31); Depression score change from baseline Median (Visit 8, nociceptive): −1.0; Depression score Mean (SD) (Visit 8, positive diagnosis of lumbar radiculopathy-neuropathic pain subset N=44): 5.8 (3.71)

From patent US9980927B2, “Use of tapentadol for inhibiting and/or treating depression and anxiety” (Gruenenthal GmbH, priority 2011, dated 2018)
